Laboratory results: patent US12473295B2, “Substituted straight chain spiro derivatives” (Janssen Pharmaceutica NV, priority 2019, dated 2025)
Structures can show the parent of a compound that is named as a salt.

Assays:
iCell Cardiomyocytes2 = test: Ca2+-fluorescence assay in human pluripotent stem cell-derived cardiomyocytes (CTCM human), iCell Cardiomyocytes2; assay type: cell-based; parameters: key: Green: No concern; Yellow: Low concern; Red: High concern; Black: Very high concern due to arrhythmic events; settings: 30 min
Protocol: (§1) 7) Cardio-Electrophysiological Effects of the Testing Compounds in Synchronously Beating Human Pluripotent Stem Cell-Derived Cardiomyocytes (hSC-CMs) Using a Ca^2+-Fluorescence Assay (CTCM Human)
(§2) Compounds were tested in the 96-well plates
Compounds were tested at 0.1 μM, 0.2 μM, 0.5 μM, 1 μM, 2.5 μM and 5 μM (n=4 per dose) on Cor.4U 9-Cardiomyocytes or on iCell® Cardiomyocytes2
Alternatively, compounds were tested at 0.1 μM, 0.3 μM; 1 μM, 3 μM, 10 μM and 30 μM (n=4 per dose) mostly on iCell® Cardiomyocytes2
(§3) Dimethylsulfoxide (DMSO). The solutions of the compound in DMSO or its solvent (final concentration of 0.1% DMSO; n=8)
(§4) Preparation of Test Article and Controls
(§5) Tested compounds were dissolved in DMSO at 1000-fold the intended concentrations. A compound “mother-plate” was made, containing the test compounds and positive and negative controls at 1000-fold the final concentrations. At the experiment day, these stock solutions were diluted with Tyrode (Sigma), supplemented with 10 mM HEPES (Gibco), to 2-fold the intended concentration (in round bottom compound plates). Final DMSO concentration in test solutions and vehicle control was 0.1%.
Second line hSC derived cardiomyocyte called iCell®, Cardiomyocytes2 were purchased from FUJIFILM Cellular Dynamics (USA). The experiments with test drugs are carried out 5 to 7 days after plating the cells onto the plate to have a living, beating monolayer of hiPSC-derived cardiomyocytes. The beating monolayer in 96-well-plates are normally taken from 2 Vials of frozen iCell) Cardiomyocytes2 (≈5 million cells/vial), which will be plated onto […] 96-well plates (≈50K/well).
(§6) Before Start of Experiment
(§7) At least one hour before the start of the experiments the normal cell medium was replaced with Tyrode solution with Calcium dye (see below).
(§8) Cal 520 dye (AAT Bioquest) was dissolved in 11 ml of Tyrode supplemented with 10 mM HEPES and warmed up to 37° C. before adding to the cells.
(§9) 35 μl cell culture medium was removed from each well and replaced with 35 μl of pre-warmed Cal 520 dye solution and cell plate was incubated for 45 min at 37° C./5% CO2. Cells were incubated for 5 min at 37° C.
(§10) Spontaneous electrical activity is recorded, using Cal520™ (AAT Bioquest) calcium fluorescence-dye signaling. This dye integrates the total intracellular calcium activity over the whole well. A bottle of Cal520 dye (50 μg, MW: 1103/mol) is dissolved with 50 μl DMSO as a stock solution of 0.9 mM. 50 μL of the stock solution of the dye was added to 10 ml Tryodes solution to have dye concentration of 4.5 μM. Subsequently, 35 μl of this dye solution was added into each well, to have a final dye concentration of 1.58 μM. The current dye protocol on this CTCM human assay was established recently (Ivan Kopljar et al, Journal of Pharmacological and toxicological methods 2018. 91: 80-86; Lu et al., Tox Sci 2019. 170 (2): 345-356).
(§11) Fluorescent signals (Ca^2+ transient morphology) were measured using the Functional Drug Screen System (FDSS/μCell; Hamamatsu, Japan) and the recordings were subsequently analyzed off-line, using appropriate software e.g. Notocord.
(§12) The cell plate was loaded into the FDSS/μCell for a test run: Ca^2+ transients were measured for 4 minutes to check for synchronous beating of the cardiomyocytes in each well. All 96 wells were measured simultaneously (sampling interval: 0.06 s, short exposure time: 10 ms; excitation wavelength 480 nm; emission wavelength 540 nm; FDSS/μCell warmed to 37° C.).
(§13) During the compound addition step, 100 μl of the respective double-concentrated test solutions was pipetted into each well simultaneously.
(§14) Data were analyzed off-line using appropriate software e.g. Notocord-Hem (version 4.3).
The following parameters of the Ca^2′ transient morphology were measured: • beat rate (BR) • amplitude of the Ca^2+ transient (Amp), • CTD90: Ca^2+ transient duration at 90% (time to 90% of the initial base value). […]

Cor.4U Cardiomyocytes = test: Ca2+-fluorescence assay in human pluripotent stem cell-derived cardiomyocytes (CTCM human), Cor.4U Cardiomyocytes; assay type: cell-based; parameters: key: Green: No concern; Yellow: Low concern; Red: High concern; Black: Very high concern due to arrhythmic events; settings: 30 min
Protocol: as §1, §2
Compounds were tested at 0.1 μM, 0.2 μM, 0.5 μM, 1 μM, 2.5 μM and 5 μM (n=4 per dose) on Cor.4U 9-Cardiomyocytes or on iCell® Cardiomyocytes2 […]
as §3, §4, §5
hSC-CMs (Cor.4U® Cardiomyocytes) were obtained from CDI (Ncardia, Germany). Cells are pre-plated and seeded in fibronectin-coated 96-well plates at a density suited to form a monolayer and maintained in culture in a stage incubator (37° C., 5% CO2), according to the instructions of the cell provider.
as §6, §7, §8, §9, §10, §11, §12, §13, §14
The following parameters of the Ca^2′ transient morphology were measured: • beat rate (BR) • amplitude of the Ca^2+ transient (Amp), • CTD90: Ca^2+ transient duration at 90% (time to 90% of the initial base value).
The presence of various ‘arrhythmia-like’ activities were also noted during the experimental periods. […]

CCN(C(=O)c1cc(F)ccc1Oc1nncnc1N1CCC2(C1)CN([C@H](CCCN(C)CCC(=O)N(C)C)C(C)C)C2)C(C)C [Compound 246, (R)-2-((5-(2-(6-((3-(dimethylamino)-3-oxopropyl)(methyl)amino)-2-methylhexan-3-yl)-2,6-diazaspiro[3.4]octan-6-yl)-1,2,4-triazin-6-yl)oxy)-N-ethyl-5-fluoro-N-isopropylbenzamide formate]
Green: Color @ 0.1 μM (hazard score) (iCell Cardiomyocytes2; iCell Cardiomyocytes2, 0.1 μM) | Color @ 0.2 μM (hazard score) (iCell Cardiomyocytes2; iCell Cardiomyocytes2, 0.2 μM) | Color @ 0.5 μM (hazard score) (iCell Cardiomyocytes2; iCell Cardiomyocytes2, 0.5 μM) | Color @ 1 μM (hazard score) (iCell Cardiomyocytes2; iCell Cardiomyocytes2, 1 μM) | Color @ 2.5 μM (hazard score) (iCell Cardiomyocytes2; iCell Cardiomyocytes2, 2.5 μM) | Color @ 5 μM (hazard score) (iCell Cardiomyocytes2; iCell Cardiomyocytes2, 5 μM)

CC(C)[C@@H](CCC(C)(C)N)N1CC2(CCN(c3ncnnc3Oc3ccc(F)cc3-c3cncnc3C3CC3)C2)C1 (single isomer, unassigned) [Compound 37, (*R)-5-(6-(6-(2-(4-cyclopropylpyrimidin-5-yl)-4-fluorophenoxy)-1,2,4-triazin-5-yl)-2,6-diazaspiro[3.4]octan-2-yl)-2,6-dimethylheptan-2-amine]
Green: Color @ 0.1 μM (hazard score) (Cor.4U Cardiomyocytes; 0.1 μM) | Color @ 0.2 μM (hazard score) (Cor.4U Cardiomyocytes; 0.2 μM) | Color @ 0.5 μM (hazard score) (Cor.4U Cardiomyocytes; 0.5 μM) | Color @ 1 μM (hazard score) (Cor.4U Cardiomyocytes; 1 μM) | Color @ 2.5 μM (hazard score) (Cor.4U Cardiomyocytes; 2.5 μM) | Color @ 5 μM (hazard score) (Cor.4U Cardiomyocytes; 5 μM)
